Measurements published in the supplement of paper PMC10307832.

How the values were obtained:
Assay in all cases: relative viability (nuclei count vs DMSO), 5 days (fraction); higher = more cells survive
[1] = compound: CCn1c(-c2nonc2N)nc2cnc(Oc3cccc(NC(=O)c4ccc(OCCN5CCOCC5)cc4)c3)cc21 + CC(=O)c1c(C)c2cnc(Nc3ccc(N4CCNCC4)cn3)nc2n(C2CCCC2)c1=O [Palbociclib] (partner 0.5 µM)
Summary of the method: (§1)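 Values are medians from duplicate plates. Each reflects relative viability, defined as the nuclei count of treated wells over that of vehicle wells. Lung cancer cell lines in 1536-well plates were pin-tool dosed one day after seeding with one drug alone or with a fixed anchor-drug dose plus five library-drug doses (not always all listed) in √10 steps, then fixed, stained and imaged at 4× after 5 days.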

[2] = compound: CCC1=CN=CN=C1N2CCN(CC2)CC3=NC4=C(N3)C=C(C=C4)C(F)(F)F + Cc1nc(Nc2ncc(C(=O)Nc3c(C)cccc3Cl)s2)cc(N2CCN(CCO)CC2)n1 [Dasatinib] (partner 0.075 µM)
Summary of the method: as §1

Mirin + AZD7762 = compound: N=C1NC(=O)/C(=C/c2ccc(O)cc2)S1 [Mirin] + NC(=O)Nc1cc(-c2cccc(F)c2)sc1C(=O)N[C@H]1CCCNC1 [AZD7762] (partner 0.2 µM)
Summary of the method: as §1

[3] = compound: CCn1c(-c2nonc2N)nc2cnc(Oc3cccc(NC(=O)c4ccc(OCCN5CCOCC5)cc4)c3)cc21 + CC1(C)CCC(c2ccc(Cl)cc2)=C(CN2CCN(c3ccc(C(=O)NS(=O)(=O)c4ccc(N[C@H](CCN5CCOCC5)CSc5ccccc5)c(S(=O)(=O)C(F)(F)F)c4)cc3)CC2)C1 [Navitoclax] (partner 0.5 µM)
Summary of the method: as §1

Cell Line	relative viability ([1]; first compound 0.04 µM)	relative viability ([1]; first compound 0.1265 µM)	relative viability ([1]; first compound 0.4 µM)	relative viability ([1]; first compound 1.265 µM)	relative viability ([1]; first compound 4 µM)	relative viability ([2]; first compound 0.04 µM)	relative viability ([2]; first compound 0.1265 µM)	relative viability ([2]; first compound 0.4 µM)	relative viability ([2]; first compound 1.265 µM)	relative viability ([2]; first compound 4 µM)	relative viability (Mirin + AZD7762; first compound 0.25 µM)	relative viability (Mirin + AZD7762; first compound 0.7906 µM)	relative viability (Mirin + AZD7762; first compound 2.5 µM)	relative viability (Mirin + AZD7762; first compound 7.906 µM)	relative viability (Mirin + AZD7762; first compound 25 µM)	relative viability ([3]; first compound 0.04 µM)	relative viability ([3]; first compound 0.1265 µM)	relative viability ([3]; first compound 0.4 µM)	relative viability ([3]; first compound 1.265 µM)	relative viability ([3]; first compound 4 µM)
LCLC-103H	0.478	0.464	0.485	0.429	0.518	0.473	0.444	0.414	0.483	0.474	0.875	0.779	0.784	0.844	0.803					
NCI-H358	0.162	0.167	0.134	0.145	0.135	0.234	0.147	0.179	0.14	0.172	0.584	0.569	0.528	0.442	0.369					
NCI-H520	0.242	0.207	0.199	0.176	0.175	0.212	0.181	0.224	0.206	0.226						1.21	1.13	0.955	0.555	0.385
NCI-H522	1.18	1.13	0.853	0.909	0.827	0.849	0.819	0.88	0.866	0.923	0.813	0.805	0.83	0.861	0.595					
NCI-H596						0.679	0.608	0.555		0.668	1	1.02	1.09	1.05	1.11	1.06	0.962	1.01	1.01	1.01
NCI-H650	0.349	0.297	0.255	0.201	0.184	0.4	0.413	0.456	0.441	0.494	1.1	1.03	0.968	0.992	0.974					
NCI-H661	0.363	0.395	0.366	0.365	0.303	0.951	0.872	0.827	0.772	0.909										
NCI-H1299																1.02	1.01	0.887	0.885	0.803
NCI-H1563						0.472	0.476	0.489	0.435	0.513										
NCI-H1623						0.455	0.501	0.548	0.564	0.562										
NCI-H1648	0.277	0.245	0.231	0.474	0.388						0.722		0.652	0.641	0.576					
NCI-H1650	0.466	0.32	0.294	0.335	0.328	0.346	0.299	0.333		0.309						1.79	1.31	1.34	1.08	1.05
NCI-H1703											0.115	0.148	0.146		0.117	1.03	0.886	0.474	0.296	0.233
NCI-H2009	0.175	0.196	0.141	0.112	0.19	0.269	0.309	0.298	0.249	0.275						1.09	0.971	0.999	0.561	0.384
NCI-H2023	0.415	0.392	0.337	0.215	0.202	0.641	0.546	0.529	0.488	0.582						1.18	0.963	1.04	0.773	0.688
NCI-H2228	0.852	0.8	0.652	0.683	0.644	0.515	0.44	0.409	0.416	0.712						0.759	0.841	1.07	0.927	0.833
NCI-H2342	0.467	0.52	0.554	0.52	0.553	0.317	0.316	0.327	0.32	0.338	0.581	0.451	0.487		0.459					
SK-LU-1	0.434	0.368	0.337	0.275	0.295	0.18	0.172	0.2	0.169	0.205						1.07	0.619	0.383	0.296	0.229
SK-MES-1	0.353	0.301	0.284	0.303	0.309	0.342	0.376	0.416	0.319	0.493						1.32	1.35	1.1		1.05
SW 900	0.54	0.517	0.572	0.521	0.574	0.601	0.544	0.571	0.603	0.448	0.67	0.669	0.669	0.518	0.641					
SW 1573	0.454	0.355	0.349	0.206	0.211	0.382	0.453	0.5	0.494	0.452						0.911	1.19	0.807	0.562	0.223
